Measured values taken from US11053204B2, “Pyrimidinyloxy benzene derivatives as herbicides” (FMC Corporation, priority 2015, dated 2021).

Assays:
Format in all cases: in vivo
[1] = test system: giant foxtail (Setaria faberii); test: Test A postemergence, visual injury rating; conditions: 0 is no effect, 100 is complete control
Outline: (§1)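 Injury scores run from 0, no effect, to 100, complete control, judged by eye against untreated plants roughly 10 days after treatment. Chemicals carried a surfactant in a non-phytotoxic solvent and went onto loam–sand soil preemergence or onto one- to two-leaf seedlings postemergence.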

[2] = test system: barnyardgrass (Echinochloa crus-galli); test: Test A postemergence, visual injury rating; conditions: 0 is no effect, 100 is complete control
Outline: as §1

[3] = test system: corn (Zea mays); test: Test A postemergence, visual injury rating; conditions: 0 is no effect, 100 is complete control
Outline: as §1

[4] = test system: kochia (Kochia scoparia); test: Test A postemergence, visual injury rating; conditions: 0 is no effect, 100 is complete control
Outline: as §1

[5] = test system: wheat (Triticum aestivum); test: Test A postemergence, visual injury rating; conditions: 0 is no effect, 100 is complete control
Outline: as §1

[6] = test system: pigweed (Amaranthus retroflexus); test: Test A postemergence, visual injury rating; conditions: 0 is no effect, 100 is complete control
Outline: as §1

[7] = test system: Italian ryegrass (Lolium multiflorum); test: Test A postemergence, visual injury rating; conditions: 0 is no effect, 100 is complete control
Outline: as §1

[8] = test system: ragweed (common ragweed, Ambrosia elatior); test: Test A postemergence, visual injury rating; conditions: 0 is no effect, 100 is complete control
Outline: as §1

[9] = test system: blackgrass (Alopecurus myosuroides); test: Test A postemergence, visual injury rating; conditions: 0 is no effect, 100 is complete control
Outline: as §1

[10] = test system: galium (catchweed bedstraw, Galium aparine); test: Test A postemergence, visual injury rating; conditions: 0 is no effect, 100 is complete control
Outline: as §1

[11] = test system: barnyardgrass (Echinochloa crus-galli); test: Test B flooded paddy test, plant response rating; conditions: 250 g ai/ha; Flood; scale of 0 to 100 where 0 is no effect and 100 is complete control; 13 to 15 days
Outline: (§2)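 Visual injury ratings against untreated controls, taken 13 to 15 days after compound was added to paddy water standing 3 cm above the soil.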

[12] = test system: sedge, umbrella (small-flower umbrella sedge, Cyperus difformis); test: Test B flooded paddy test, plant response rating; conditions: 250 g ai/ha; Flood; scale of 0 to 100 where 0 is no effect and 100 is complete control; 13 to 15 days
Outline: as §2

[13] = test system: ducksalad (Heteranthera limosa); test: Test B flooded paddy test, plant response rating; conditions: 250 g ai/ha; Flood; scale of 0 to 100 where 0 is no effect and 100 is complete control; 13 to 15 days
Outline: as §2

[14] = test system: rice (Oryza sativa); test: Test B flooded paddy test, plant response rating; conditions: 250 g ai/ha; Flood; scale of 0 to 100 where 0 is no effect and 100 is complete control; 13 to 15 days
Outline: as §2

[15] = test system: kochia (Kochia scoparia); test: Test A preemergence, visual injury rating; conditions: 0 to 100 scale (0 no effect, 100 complete control)
Outline: as §1

[16] = test system: pigweed (Amaranthus retroflexus); test: Test A preemergence, visual injury rating; conditions: 0 to 100 scale (0 no effect, 100 complete control)
Outline: as §1

Row | Compound | Foxtail, Giant plant response rating (0 to 100 scale) ([1]; 125 g ai/ha) | Foxtail, Giant plant response rating (0 to 100 scale) ([1]; 500 g ai/ha) | Barnyardgrass plant response rating (0 to 100 scale) ([2]; 125 g ai/ha) | Barnyardgrass plant response rating (0 to 100 scale) ([2]; 500 g ai/ha) | Corn plant response rating (0 to 100 scale) ([3]; 125 g ai/ha) | Corn plant response rating (0 to 100 scale) ([3]; 500 g ai/ha) | Wheat plant response rating (0 to 100 scale) ([5]; 125 g ai/ha) | Wheat plant response rating (0 to 100 scale) ([5]; 500 g ai/ha) | Pigweed plant response rating (0 to 100 scale) ([6]; 125 g ai/ha) | Pigweed plant response rating (0 to 100 scale) ([6]; 500 g ai/ha) | Ryegrass, Italian plant response rating (0 to 100 scale) ([7]; 125 g ai/ha) | Ryegrass, Italian plant response rating (0 to 100 scale) ([7]; 500 g ai/ha) | Ragweed plant response rating (0 to 100 scale) ([8]; 125 g ai/ha) | Ragweed plant response rating (0 to 100 scale) ([8]; 500 g ai/ha) | Blackgrass plant response rating (0 to 100 scale) ([9]; 125 g ai/ha) | Blackgrass plant response rating (0 to 100 scale) ([9]; 500 g ai/ha) | Galium plant response rating (0 to 100 scale) ([10]; 125 g ai/ha) | Galium plant response rating (0 to 100 scale) ([10]; 500 g ai/ha) | Plant response rating, Barnyardgrass [11] | Plant response rating, Sedge, Umbrella [12] | other results
1 | N#Cc1cccc(Oc2ncc(Cl)cn2)c1C(=O)OCCC(F)(F)F [Compound 30] | 60 | 100 | 0 | 20 | 30 | 70 | 0 | 30 | 100 | 100 | 0 | 0 | 0 | 0 | 10 | 30 | 60 | 100 | 0 | 0 | Kochia plant response rating (0 to 100 scale) ([4]; 125 g ai/ha): 100; Kochia plant response rating (0 to 100 scale) ([4]; 500 g ai/ha): 100; Plant response rating, Ducksalad [13]: 40; Plant response rating, Rice [14]: 0; Kochia plant response rating ([15]; 125 g ai/ha): 90; Kochia plant response rating ([15]; 500 g ai/ha): 100; Pigweed plant response rating ([16]; 125 g ai/ha): 100; Pigweed plant response rating ([16]; 500 g ai/ha): 100
2 | C=C(Br)COC(=O)c1c(Br)cccc1Oc1ncc(Cl)cn1 [Compound 61] | 60 | 100 | 100 | 100 | 20 | 40 | 0 | 30 | 40 | 100 | 20 | 80 | 10 | 30 | 30 | 100 | 60 | 100 | 20 | 100 | Plant response rating, Ducksalad [13]: 100; Plant response rating, Rice [14]: 0; Kochia plant response rating ([15]; 125 g ai/ha): 90; Kochia plant response rating ([15]; 500 g ai/ha): 100; Pigweed plant response rating ([16]; 125 g ai/ha): 100; Pigweed plant response rating ([16]; 500 g ai/ha): 100
